Measured values published in patent US20160235781A1, “DIURETIC INDUCED ALTERATIONS OF PLASMA VOLUME” (MAST THERAPEUTICS, INC., priority 2013, published 2016).

Assay: Example 2: diuretic induced hemo-concentration patient, transthoracic echocardiography and body weight
Format: in vivo, human
Method: A person weighing 180 pounds, with a history of a prior myocardial infarction, was hospitalized with fatigue, peripheral edema and difficulty in breathing. […] Diuretic therapy effected by administering IV bolus doses of 150 mg furosemide every 12 hours was started. Their body weight measurement after 48 hours of furosemide treatment was 172 pounds.
The patient was continued on furosemide and a 15% solution of purified poloxamer 188 in citrate buffered saline was administered at a dose of 250 mg/kg as an IV infusion over a period of 1 hour. Twenty-four hours later, their body weight was 168 pounds.

## NS(=O)(=O)c1cc(C(=O)O)c(NCc2ccco2)cc1Cl [furosemide]
After 48 hours of furosemide 150 mg IV bolus every 12 hours, 180 pounds at admission
  body weight: 172 pounds
After 48 hours of furosemide alone, 30% at admission
  ejection fraction: 29%
